Experimental data from US20230167093A1, “COMPOUNDS AND METHODS FOR MODULATING SPLICING” (REMIX THERAPEUTICS INC., priority 2020, published 2023).

Columns and labels:
Assay type in all cases: cell-based
HTT AJ mRNA = assay: RT-qPCR splicing assay, HTT alternative junction (AJ) mRNA increase; conditions: A673 or K562 cells, 24 hours compound treatment, top dose 10 uM; concentration having 50% response in AJ increase
Description: (§1) Compounds described herein were used to modulate RNA transcript abundance in cells. The expression of a target mRNA was measured by detecting the formation of an exon-exon junction in the canonical transcript (CJ). A compound mediated exon-inclusion event was detected by observing an increase in formation of a new junction with an alternative exon (AJ). Real-time qPCR assays were used to detect these splicing switches and interrogate the potency of various compounds towards different target genes. A high-throughput real time quantitative PCR (RT-qPCR) assay was developed to measure these two isoforms of the mRNA (CJ and AJ) for an exemplary gene, HTT, together with a control housekeeping gene, GAPDH or GUSB or PPIA, used for normalization. Briefly, the A673 or K562 cell line was treated with various compounds described herein (e.g., compounds of Formula (I) or (II)). After treatment, the levels of the HTT mRNA targets were determined from each sample of cell lysate by cDNA synthesis followed by qPCR.
(§2) The A673 cell line was cultured in DMEM with 10% FBS. Cells were diluted with full growth media and plated in a 96-well plate (15,000 cells in 100 ul media per well). The plate was incubated at 37° C. with 5% CO2 for 24 hours to allow cells to adhere. An 11-point 3-fold serial dilution of the compounds was made in DMSO then diluted in media in an intermediate plate. Compounds were transferred from the intermediate plate to the cell plate with the top dose at a final concentration of 10 uM in the well. Final DMSO concentration was kept at or below 0.25%. The cell plate was returned to the incubator at 37° C. with 5% CO2 for an additional 24 hours.
(§3) The K562 cell line was cultured in IMDM with 10% FBS. For K562, cells were diluted with full growth media and plated in either a 96-well plate (50,000 cells in 50 uL media per well) or a 384-well plate (8,000-40,000 cells in 45 uL media per well). An 11-point 3-fold serial dilution of the compounds were made in DMSO then diluted in media in an intermediate plate. Compound was transferred from the intermediate plate to the cell plate with the top dose at a final concentration of 10 uM in the well. Final DMSO concentration was kept at or below 0.25%. Final volume was 100 uL for 96-well plate and 50 uL for 384-well plate. The cell plate was then placed in an incubator at 37° C. with 5% CO2 for 24 hours.
(§4) The cells were then gently washed with 50 uL-100 uL cold PBS before proceeding to addition of lysis buffer. 30 uL-50 uL of room temperature lysis buffer with DNAse I (and optionally RNAsin) was added to each well. Cells were shaken/mixed thoroughly at room temperature for 5-10 minutes for lysis to take place and then 3 uL-5 uL of room temperature stop solution was added and wells were shaken/mixed again. After 2-5 minutes, the cell lysate plate was transferred to ice for RT-qPCR reaction setup. The lysates could also be frozen at −80° C. for later use.
(§5) In some cases, a direct lysis buffer was used. An appropriate volume of 3× lysis buffer (10 mM Tris, 150 mM NaCl, 1.5%-2.5% Igepal and 0.1-1 U/uL RNAsin, pH 7.4) was directly added to either K562 or A673 cells in media and mixed by pipetting 3 times. The plates were then incubated at room temperature with shaking/rocking for 20-50 minutes to allow for lysis to take place. After this time, the cell lysate plate was transferred to ice to set up for the RT-qPCR reactions. The lysates could also be frozen at −80° C. for later use.
(§6) To set up 10 uL RT-qPCR reactions, cell lysates were transferred to 384-well qPCR plates containing the master mix according to the table below. The plates were sealed, gently vortexed, and spun down before the run. The volumes were adjusted accordingly in some instances where the reaction was carried in 20 uL. The table below summarizes the components of the RT-qPCR reactions:
(§7) The RT-qPCR reaction was performed using a QuantStudio (ThermoFisher) under the following fast cycling conditions. […]

HTT CJ mRNA [1] = assay: RT-qPCR splicing assay, HTT canonical junction (CJ) mRNA decrease; conditions: A673 or K562 cells, 24 hours compound treatment, top dose 10 uM; concentration having 50% response in CJ decrease
Description: as §1, §2, §3, §4, §5, §6, §7

HTT CJ mRNA [2] = assay: Gene panel canonical junction qPCR assay, HTT; conditions: protocol as above, concentration having 50% response in CJ decrease, read-out: HTT IC50 (decrease in CJ mRNA levels)
Description: as §1, §2, §3, §4, §5, §6, §7

SMN2 CJ mRNA = assay: Gene panel canonical junction qPCR assay, SMN2; conditions: protocol as above, concentration having 50% response in CJ decrease, read-out: SMN2 IC50 (decrease in CJ mRNA levels)
Description: as §1, with “After treatment, the levels of the HTT mRNA targets were determined from each sample of cell lysate by cDNA synthesis followed by qPCR.” left out
as §2, §3, §4, §5, §6
The RT-qPCR reaction was performed using a QuantStudio (ThermoFisher) under the following fast cycling conditions. All samples and standards were analyzed at least in duplicate. […]

Target C CJ mRNA = assay: Gene panel canonical junction qPCR assay, Target C; conditions: protocol as above, concentration having 50% response in CJ decrease, read-out: Target C IC50 (decrease in CJ mRNA levels)
Description: as §1, §2, §3, §4, §5, §6, §7

Row | IC50 (HTT CJ mRNA [2]) | IC50 (SMN2 CJ mRNA) | IC50 (Target C CJ mRNA) | Compound | AC50 (HTT AJ mRNA) | AC50 (HTT CJ mRNA [1])
1 | > 10 µM | > 10 µM |  | CN1CCN(c2ccc3ncn(-c4ccc5nn(C)cc5c4)c(=O)c3c2)CC1 [Compound 154, 3-(2-methyl-2H-indazol-5-yl)-6-(4-methylpiperazin-1-yl)quinazolin-4(3H)-one] | > 10 µM | > 10 µM
2 | > 10 µM | > 10 µM |  | Cn1cc2cc(-n3cnc4ccc(N5CCNCC5)cc4c3=O)ccc2n1 [Compound 155, 3-(2-methyl-2H-indazol-5-yl)-6-(piperazin-1-yl)quinazolin-4(3H)-one] | > 10 µM | > 10 µM
3 | > 10 µM | > 10 µM | > 10 µM | Cc1cc(-c2ccc3ncn(C4CCNCC4)c(=O)c3c2)cc2cn(C)nc12 [Compound 169, 6-(2,7-dimethyl-2H-indazol-5-yl)-3-(piperidin-4-yl)quinazolin-4(3H)-one] | > 10 µM | > 10 µM
4 | > 10 µM | > 10 µM | > 10 µM | Cc1cc(-c2ccc3ncn(C4CCN(C)CC4)c(=O)c3c2)cc2cn(C)nc12 [Compound 170, 6-(2,7-dimethyl-2H-indazol-5-yl)-3-(1-methylpiperidin-4-yl)quinazolin-4(3H)-one] | > 10 µM | > 10 µM
5 | > 10 µM | > 10 µM | > 10 µM | CN1CCC(Nc2ccc3ncn(-c4ccc5nn(C)cc5c4)c(=O)c3c2)CC1 [Compound 171, 3-(2-methyl-2H-indazol-5-yl)-6-((1-methylpiperidin-4-yl)amino)quinazolin-4(3H)-one] | > 10 µM | > 10 µM
6 | 1 to 10 µM | 1 to 10 µM | 1 to 10 µM | CN1CCN(c2ccc3ncn(-c4cc(F)c5nn(C)cc5c4)c(=O)c3c2)CC1 [Compound 194, 3-(7-fluoro-2-methyl-2H-indazol-5-yl)-6-(4-methylpiperazin-1-yl)quinazolin-4(3H)-one] | 1 to 10 µM | 1 to 10 µM
7 | > 10 µM | > 10 µM | > 10 µM | Cc1cn2cc(-n3cnc4ccc(N5CCNCC5)cc4c3=O)cc(F)c2n1 [Compound 195, 3-(8-fluoro-2-methylimidazo[1,2-a]pyridin-6-yl)-6-(piperazin-1-yl)quinazolin-4(3H)-one] | > 10 µM | > 10 µM
8 | > 10 µM | > 10 µM | > 10 µM | Cn1cc2cc(-n3cnc4ccc(N5CCNCC5)cc4c3=O)cc(F)c2n1 [Compound 196, 3-(7-fluoro-2-methyl-2H-indazol-5-yl)-6-(piperazin-1-yl)quinazolin-4(3H)-one] | > 10 µM | > 10 µM
9 | 1 to 10 µM | 1 to 10 µM | 1 to 10 µM | Cc1cn2cc(-n3cnc4ccc(N5CCN(C)CC5)cc4c3=O)cc(F)c2n1 [Compound 197, 3-(8-fluoro-2-methylimidazo[1,2-a]pyridin-6-yl)-6-(4-methylpiperazin-1-yl)quinazolin-4(3H)-one] | 1 to 10 µM | 1 to 10 µM

Row | Compound | IC50 (HTT CJ mRNA [2]) | IC50 (SMN2 CJ mRNA) | IC50 (Target C CJ mRNA) | AC50 (HTT AJ mRNA) | AC50 (HTT CJ mRNA [1])
10 | Cn1cc2cc(-n3cnc4ccc(C5=CCNCC5)cc4c3=O)ccc2n1 [Compound 151, 3-(2-methyl-2H-indazol-5-yl)-6-(1,2,3,6-tetrahydropyridin-4-yl)quinazolin-4(3H)-one] | > 10 µM | > 10 µM |  | > 10 µM | > 10 µM
11 | CN1[C@H]2CC[C@@H]1C=C(c1ccc3ncn(-c4ccc5nn(C)cc5c4)c(=O)c3c1)C2 [Compound 168, 3-(2-methyl-2H-indazol-5-yl)-6-((1R,5S)-8-methyl-8-azabicyclo[3.2.1]oct-2-en-3-yl)quinazolin-4(3H)-one] | > 10 µM | > 10 µM | > 10 µM | > 10 µM | > 10 µM
12 | CN(c1ccc2ncn(-c3cc(F)c4nn(C)cc4c3)c(=O)c2c1)C1CCNCC1 [Compound 198, 3-(7-fluoro-2-methyl-2H-indazol-5-yl)-6-(methyl(piperidin-4-yl)amino)quinazolin-4(3H)-one] | > 10 µM | > 10 µM | > 10 µM | > 10 µM | > 10 µM
